Measurements taken from patent US10538561B2, “Peptide for treating inflammatory diseases” (priority 2015, dated 2020).
Marks after values point to notes of the source that are not given here.

Experiments:
[1] = test system: Caspase-3 enzyme; test: Caspase-3 assay; type: cell-based, Human; settings: HaCaT, 48 h
Protocol: Cell lines: Human Keratinocytes (HaCaT); Test Item (TI): IS 181; Treatment regimen: Multiple additions (2)—48 hours; Concentration range: 100 μg/ml to 5000 μg/ml (Duplicate wells); Sera Condition: Medium containing 1% FBS. […] Cells were lysed and protein was estimated. The above lysates were processed further for Caspase-3 enzyme activity assay using colorimetric based method. Percentage induction of Caspase-3 enzyme activation with respect to untreated; Positive control: Anthralin. IS 181 led to induction of Caspase-3 enzyme activation in HaCaT cells at all the concentrations tested except at 100 μg/ml. […] (FIGS. 7A-7B)

[2] = biological target: PDGFRA (PDGFR alpha) (Homo sapiens, UniProt P16234); test: Biochemical kinase assay PDGFRA; settings: cell free, read-out: inhibition of PDGFRA (PDGRFR alpha)
Protocol: (§1) Test system: cell free assays; test items: IS181; concentrations tested: 1 ng/ml-5000 μg/ml; Kinases: a) Cell free assays: EGFR (ErbB1); FLT1 (VEGFR1); JAK1; JAK3 MAP2K1 (MEK1); PDGFRA (PDGFR alpha); PRKCA (PKC alpha); b) cell based assay: JAK-STAT.

[3] = test system: TNF-α; test: LPS stimulated TNF-α secretion in RAW264.7; type: cell-based, Mouse; settings: for TNF-α % decrease with respect to LPS / TNF-α Conc (pg/ml): RAW264.7 + LPS, 24 h
Protocol: Effect on pro-inflammatory cytokines against LPS stimulation: TNF-α; IL-6; IL-1-β: Cell lines: Murine macrophage cell line (RAW264.7); test item: IS181; experimental steps: pretreatment of cells with TI for 2 hours; stimulation with LPS (100 ng/ml) for 24 hours; supernatant collection for cytokine analysis; concentration range: o.1 μg/ml-500 μg/ml (duplicate wells); Cytokines: TNF-α; IL-6; IL-1-β; Method of estimating cytokines: ELISA; positive control: dexamethasone.
Cell line: RAW264.7 (Mouse macrophages); TI treatment regimen: Pretreatment for 2 h; TI Concentration range: 0.1 μg/ml-500 μg/ml (duplicate wells); LPS stimulation: 100 ng/ml; Time point for supernatants collection: 24 h; Method of estimation: ELISA; Positive control: Dexamethasone

[4] = biological target: T1, JAK3 (Homo sapiens, UniProt P52333); test: Biochemical kinase assay JAK3
T1 sequence (P52333 1-1124): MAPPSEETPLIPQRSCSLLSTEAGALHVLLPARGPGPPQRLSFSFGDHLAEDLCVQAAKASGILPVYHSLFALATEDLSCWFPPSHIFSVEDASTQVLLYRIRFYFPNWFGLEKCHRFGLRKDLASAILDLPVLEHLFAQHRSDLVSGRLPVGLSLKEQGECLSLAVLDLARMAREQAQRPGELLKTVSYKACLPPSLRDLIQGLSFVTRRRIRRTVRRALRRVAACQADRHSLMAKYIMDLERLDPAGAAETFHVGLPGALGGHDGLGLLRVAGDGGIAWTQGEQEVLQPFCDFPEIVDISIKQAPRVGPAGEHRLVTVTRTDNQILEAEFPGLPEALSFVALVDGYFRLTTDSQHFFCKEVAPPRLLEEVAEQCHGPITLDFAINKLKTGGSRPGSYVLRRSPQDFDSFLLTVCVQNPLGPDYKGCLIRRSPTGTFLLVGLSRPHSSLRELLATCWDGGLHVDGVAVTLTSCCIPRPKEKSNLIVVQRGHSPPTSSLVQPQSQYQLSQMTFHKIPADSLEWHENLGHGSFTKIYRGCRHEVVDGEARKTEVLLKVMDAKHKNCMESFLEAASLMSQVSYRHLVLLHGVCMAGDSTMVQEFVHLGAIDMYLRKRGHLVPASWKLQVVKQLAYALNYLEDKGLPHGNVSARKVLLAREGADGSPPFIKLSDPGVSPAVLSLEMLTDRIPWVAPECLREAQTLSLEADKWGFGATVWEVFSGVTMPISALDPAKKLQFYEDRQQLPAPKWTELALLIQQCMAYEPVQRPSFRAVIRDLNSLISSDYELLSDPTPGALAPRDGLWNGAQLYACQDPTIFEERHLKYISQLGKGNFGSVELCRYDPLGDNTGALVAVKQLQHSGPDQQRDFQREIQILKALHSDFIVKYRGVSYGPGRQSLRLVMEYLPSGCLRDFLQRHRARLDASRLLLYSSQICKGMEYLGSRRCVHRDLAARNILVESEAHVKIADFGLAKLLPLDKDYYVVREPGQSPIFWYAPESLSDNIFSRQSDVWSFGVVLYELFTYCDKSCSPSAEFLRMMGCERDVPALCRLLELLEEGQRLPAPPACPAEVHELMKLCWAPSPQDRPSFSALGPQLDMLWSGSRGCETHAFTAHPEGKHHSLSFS
Protocol: as §1

Chain of PDGFRA (PDGFR alpha) (P16234 24-1089): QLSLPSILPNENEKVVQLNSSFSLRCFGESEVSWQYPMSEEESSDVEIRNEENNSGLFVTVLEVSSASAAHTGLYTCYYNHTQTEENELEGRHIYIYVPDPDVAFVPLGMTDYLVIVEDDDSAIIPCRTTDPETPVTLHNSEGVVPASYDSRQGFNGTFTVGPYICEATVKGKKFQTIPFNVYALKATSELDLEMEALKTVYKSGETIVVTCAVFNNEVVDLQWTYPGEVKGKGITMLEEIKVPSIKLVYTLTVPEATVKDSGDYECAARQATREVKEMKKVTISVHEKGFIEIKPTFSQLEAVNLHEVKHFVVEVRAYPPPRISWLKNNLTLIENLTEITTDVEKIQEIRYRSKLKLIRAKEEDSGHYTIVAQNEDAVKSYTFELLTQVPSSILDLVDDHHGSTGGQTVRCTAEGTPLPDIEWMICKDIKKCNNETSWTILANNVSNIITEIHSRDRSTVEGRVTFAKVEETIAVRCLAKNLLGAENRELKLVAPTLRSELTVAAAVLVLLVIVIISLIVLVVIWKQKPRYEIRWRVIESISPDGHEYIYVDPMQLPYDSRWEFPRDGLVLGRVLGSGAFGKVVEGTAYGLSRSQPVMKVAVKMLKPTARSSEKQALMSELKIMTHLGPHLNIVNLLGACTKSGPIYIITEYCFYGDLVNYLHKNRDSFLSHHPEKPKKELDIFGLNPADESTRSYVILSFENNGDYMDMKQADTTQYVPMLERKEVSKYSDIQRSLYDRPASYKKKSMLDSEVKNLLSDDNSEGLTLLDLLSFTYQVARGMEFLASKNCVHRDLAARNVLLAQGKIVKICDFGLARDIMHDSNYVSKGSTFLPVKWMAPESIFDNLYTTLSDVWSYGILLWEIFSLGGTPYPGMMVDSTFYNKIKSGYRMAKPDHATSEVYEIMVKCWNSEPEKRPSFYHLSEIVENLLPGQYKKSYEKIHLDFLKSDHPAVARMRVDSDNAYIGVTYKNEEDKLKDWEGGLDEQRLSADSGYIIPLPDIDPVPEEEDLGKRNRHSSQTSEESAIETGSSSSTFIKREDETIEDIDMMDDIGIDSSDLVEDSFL

H-WVQRVVEKFLK-OH [IS181, H-Trp-Val-Gln-Arg-Val-Val-Glu-Lys-Phe-Leu-Lys-OH]
Percentage induction of caspase-3 enzyme activation with respect to untreated ([1]; 100 μg/ml): −20.37 | Percentage induction of caspase-3 enzyme activation with respect to untreated ([1]; 500 μg/ml): 7.41 | Percentage induction of caspase-3 enzyme activation with respect to untreated ([1]; 1000 μg/ml): 29.63 | Percentage induction of caspase-3 enzyme activation with respect to untreated ([1]; 2000 μg/ml): 50 | inhibition at 50 µg/mL ([2]; 50 μg/ml): 8% | inhibition at 100 µg/mL ([2]; 100 μg/ml): -10% | inhibition at 250 µg/mL ([2]; 250 μg/ml): -26% | inhibition at 500 µg/mL ([2]; 500 μg/ml): -49% | inhibition at 1000 µg/mL ([2]; 1000 μg/ml): -81% | inhibition at 2000 µg/mL ([2]; 2000 μg/ml): -147% | TNF-α inhibition as compared to LPS stimulated levels ([3]; RAW264.7): good extent of TNF-α and IL-6 inhibition | TNF-α % decrease with respect to LPS ([3]; 0.1 μ/ml): 58.8% | TNF-α Conc (pg/ml) ([3]; 0.1 μ/ml): 1190.3*** pg/ml | TNF-α % decrease with respect to LPS ([3]; 1 μ/ml): 32.1% | TNF-α Conc (pg/ml) ([3]; 1 μ/ml): 1960.5*** pg/ml | TNF-α % decrease with respect to LPS ([3]; 5 μ/ml): 34.0% | TNF-α Conc (pg/ml) ([3]; 5 μ/ml): 1906.1*** pg/ml | TNF-α % decrease with respect to LPS ([3]; 10 μ/ml): 60.2% | TNF-α Conc (pg/ml) ([3]; 10 μ/ml): 1149.0*** pg/ml | TNF-α % decrease with respect to LPS ([3]; 100 μ/ml): 17.6% | TNF-α Conc (pg/ml) ([3]; 100 μ/ml): 2379.2* pg/ml | TNF-α % decrease with respect to LPS ([3]; 500 μ/ml): 38.4% | TNF-α Conc (pg/ml) ([3]; 500 μ/ml): 1779.9*** pg/ml | TNF-α secretion downregulated vs LPS stimulated levels ([3]; RAW264.7, 0.1 μg/ml-500 μg/ml): 17.6%-60.2% | inhibition at 10 µg/mL ([4]; 10 μg/ml): 13% | inhibition at 50 µg/mL ([4]; cell free, 50 μg/ml): 13% | inhibition at 100 µg/mL ([4]; cell free, 100 μg/ml): -24% | inhibition at 250 µg/mL ([4]; cell free, 250 μg/ml): -72% | inhibition at 500 µg/mL ([4]; cell free, 500 μg/ml): -142% | inhibition at 1000 µg/mL ([4]; cell free, 1000 μg/ml): -198%
